Reference: article PMC7262662 (BioMed Research International, 2020)
Like-named read-outs stand apart in the source and are kept apart here. Marks after values point to notes of the source that are not given here.

Legend:
[1] = Cytotoxicity assay (MTT); format: cell-based, feline; details: cat
Procedure: (§1) CrFK cells at a density of 2 × 10^4 were incubated in 96-well culture plates for 24 h at 37°C. Then, the cells were washed with PBS. […] A colorimetric MTT assay was performed. Briefly, 20 μL 5 mg/mL MTT solution was added to each well and incubated for 2 h at 37°C. Then, 170 μL solution was removed from each well; subsequently, 100 μL DMSO was added to dissolve the formazan crystals. The plate was then incubated for 1 h before optical density (OD) measurement at 570 nm using a plate reader (BioTek EL800, BioTek, Winooski, VT, USA).
(§2) The relative cell viability (%) of CrFK cells after treatment was calculated using the formula (OD570 (treated cells)/OD570 (control cells)) × 100. The median cytotoxic concentration (CC50) is the concentration that reduces the absorbance of treated cells to 50% with respect to the cell controls. The CC50 of the compounds was calculated by regression analysis in SPSS software version 22.0 (IBM, Chicago, IL, USA).

[2] = tested on: CrFK cells; test: Cytotoxicity assay (MTT); format: cell-based, feline; details: CrFK cells; MTT; tested 1 to 250 μg/mL
Procedure: as §1, §2

[3] = tested on: FIPV; test: Antiviral assay in cotreatment: viral RNA quantification by qPCR; format: cell-based, feline infectious peritonitis virus; details: for % log10 copy number decrement: compared to FIPV sample; for 3′UTR log10 copy number: cotreatment
Procedure: CrFK cells at a density of 1 × 10^5 were cultured in medium in 24-well plates for 24 h at 37°C. […] The culture supernatant was centrifuged at 700 g for 10 min, and the virus-containing supernatant was collected and used for virus quantification.
Viral RNA was extracted from the collected supernatant using a Viral Nucleic Acid Extraction Kit II (Geneaid, New Taipei City, Taiwan) following the protocol provided by the manufacturer. Cellular total RNA was extracted from the CrFK cell pellet using the RNeasy® Mini Kit, which includes DNase treatment (QIAGEN, Germantown, MD, USA). The concentration and purity of the extracted RNA were quantified using the Eppendorf BioSpectrometer® kinetic (Eppendorf, Hamburg, Germany). The extracted RNA was stored at -80°C until further use.
Complementary DNA (cDNA) was prepared, and viral mRNA was quantified using quantitative PCR (qPCR) employing previously described methods. The qPCR results were quantified using the absolute quantification approach, where a standard curve of a serial dilution of viral cDNA template was plotted before the quantification.

[4] = tested on: FIPV-infected cells; test: Feline-specific magnetic bead-based multiplex immunoassay; format: cell-based; details: 20 μM
Procedure: The culture supernatant was centrifuged and used for the bead-based multiplex immunoassay, while the attached cells were trypsinised and collected for the cellular proinflammatory cytokine mRNA expression study.
Nineteen immune-related proteins including cytokines, chemokines, growth factors, and other immunologically active proteins were measured using a commercially available feline-specific magnetic bead-based multiplex immunoassay. The Feline Cytokine/Chemokine Magnetic Bead Panel Premixed (FCYTOMAG-20K-PMX; EMD Millipore, Billerica, MA, USA) was purchased and used according to the manufacturer's recommendation. Quality control samples, standards, and sets of culture sample were run on plates in duplicate. Prior to measurement, the culture samples were concentrated using Concentrator 5301 (Eppendorf, Hamburg, Germany). The plates were evaluated using MAGPIX® (Luminex, Austin, TX, USA); subsequently, the results were analysed using MILLIPLEX Analyst v.5.1 (EMD Millipore, Billerica, MA, USA).

[5] = Pharmacokinetics study in healthy cats (plasma curcumin by HPLC); format: in vivo; details: for Curcumin content in plasma: any interval, not detected, below detection limit of HPLC; for Tmax / Cmax / AUC(0-t): po, 250 mg/kg; for Cmax: plasma curcumin
Procedure: Single-dosing (s.i.d.) and two-dosing (b.i.d.) oral administration of curcumin and Cur-CS nanoparticle pharmacokinetics study spanning 24 h was performed in the cats, which weighed 1.5–3.5 kg. The cats were randomly divided into four groups, and each group contained four cats. […] Prior to and 0.5, 1, 2, 3, 4, 8, 12, and 24 h after the treatments, 1 mL blood was harvested via jugular, cephalic, or saphenous venipuncture into lithium heparinized tubes (BD, Franklin Lakes, NJ, USA). The plasma was immediately centrifuged at 500 g for 5 min at 4°C and stored at -80°C until use. The cats then underwent a 2-week washout and rest period prior to testing on the following treatment and series of blood collection. All the cats were neutered at the end of the study and adopted by the public. Curcumin was extracted from plasma using the polar solvent extraction method. Ethyl acetate (500 μL) was added to 200 μL plasma and vortexed for 10 min. The samples were centrifuged at 4000 g at 10°C for 15 min, and the upper ethyl acetate layer was transferred to a new 1.5 mL tube. The extraction was repeated twice and performed under dim light conditions to prevent the degradation of curcumin. […] An aliquot of a 20 μL sample was analysed for quantifying the curcumin in the plasma by HPLC. The curcumin was quantified using a Series 1200 Quaternary HPLC system (Agilent Technologies, Santa Clara, CA, USA) with an UV-Vis detector equipped with an Eclipse Plus C18 column (Agilent Technologies). The HPLC system was first optimised as previously described and further adjusted to suitable settings. […] The flow rate of the mobile phase was maintained at 1 mL/min with an injection volume of 20 μL sample, where the column temperature was maintained at 35°C. The detector signal of the HPLC system for curcumin detection was adjusted to 425 nm. A 6-point calibration curve was prepared by serial dilution of 1 mg/mL curcumin stock solution in methanol. Curcumin concentrations (ng/mL) in the plasma were calculated based on the calibration curve. Time to reach maximum plasma concentration (Tmax) and maximum plasma concentration (Cmax) values were obtained directly from the measured data. The area under the curve from 0 to t (AUC0-t) was calculated using the linear-log trapezoidal method.

[6] = plasma, oral 250 mg/kg, single dosing (s.i.d.)

- Curcumin content in plasma ([5]; 50 mg/kg): < 25 ng/mL
- Curcumin content in plasma ([5]; 100 mg/kg): < 25 ng/mL
- Tmax ([5]; cat, plasma, oral 250 mg/kg, b.i.d. study, as stated in the text (similar to s.i.d. profile)): 2 to 4 h
- AUC0-12 as share of AUC0-∞ ([5]; oral 250 mg/kg): more than 80%
- AUC(0-inf) [5, 6]: 1370 ± 112 ng·h/mL
- Tmax [5, 6]: 3 h
- Cmax [5, 6]: 220 ± 18.6 ng/mL
- AUC(0-t) ([5]; plasma, oral 250 mg/kg, single dosing (s.i.d.), read-out: AUC0-12): 1140 ± 137 ng·h/mL
- Cmax ([5]; plasma, oral 250 mg/kg, two dosing (b.i.d.) 12 h apart): 241 ± 27.1 ng/mL
- Tmax ([5]; plasma, oral 250 mg/kg, two dosing (b.i.d.), after the second dose): 4 h
- AUC(0-t) ([5]; plasma, oral 250 mg/kg, two dosing (b.i.d.), read-out: AUC0-12): 1510 ± 72.4 ng·h/mL
- AUC(0-t) ([5]; plasma, oral 250 mg/kg, two dosing (b.i.d.), read-out: AUC0-24): 3100 ± 176 ng·h/mL
SMILES: COc1cc(/C=C/C(=O)CC(=O)/C=C/c2ccc(O)c(OC)c2)ccc1O [Curcumin]
- CC50 at 24 h [1]: 69.9 µM
- CC50 at 48 h [1]: 59.1 µM
- CC50 at 72 h [1]: 35.5 µM
- Concentration tolerated by the cells without cytotoxic effect [2]: 15000 ng/mL
- % log10 copy number decrement ([3]; 48 h, 5 μM): 27.54 ± 3.28^b %
- 3′UTR log10 copy number ([3]; 48 h, 5 μM, FIPV sample 11.86 ± 0.06): 11.72 ± 0.06^d
- % log10 copy number decrement ([3]; 48 h, 10 μM): 40.50 ± 5.41^c %
- 3′UTR log10 copy number ([3]; 48 h, 10 μM, FIPV sample 11.86 ± 0.06): 11.63 ± 0.01^cd
- % log10 copy number decrement ([3]; 48 h, 20 μM): 59.46 ± 2.45^e %
- % log10 copy number decrement ([3]; 48 h, 20 μM, listed as curcumin): 59.46 ± 2.45%
- 3′UTR log10 copy number ([3]; 48 h, 20 μM, FIPV sample 11.86 ± 0.06): 11.46 ± 0.05^b
- % log10 copy number decrement ([3]; 72 h, 5 μM): 10.70 ± 5.47^b %
- 3′UTR log10 copy number ([3]; 72 h, 5 μM, FIPV sample 12.00 ± 0.03): 11.95 ± 0.01^cd
- % log10 copy number decrement ([3]; 72 h, 10 μM): 26.92 ± 5.93^cd %
- 3′UTR log10 copy number ([3]; 72 h, 10 μM, FIPV sample 12.00 ± 0.03): 11.86 ± 0.06^abc
- % log10 copy number decrement ([3]; 72 h, 20 μM): 26.38 ± 2.75^c %
- 3′UTR log10 copy number ([3]; 72 h, 20 μM, FIPV sample 12.00 ± 0.03): 11.87 ± 0.04^abc
- TNFα concentration ([4]; 24 h, infected cells untreated 38.13 ± 0.00): 37.40 ± 1.04^b pg/mL
- IL-18 concentration ([4]; 24 h, infected cells untreated 60.62 ± 3.50): 47.92 ± 1.73^ab pg/mL
- KC concentration ([4]; 24 h, infected cells untreated 80.76 ± 3.71): 58.52 ± 15.92^bc pg/mL
- SDF-1 concentration ([4]; 24 h, infected cells untreated 161.3 ± 7.1): 163.5 ± 3.1^b pg/mL
- PDGF-BB concentration ([4]; 24 h, infected cells untreated 445.6 ± 18.7): 446.0 ± 0.0^b pg/mL
- RANTES concentration ([4]; 24 h, infected cells untreated 868.6 ± 62.1): 746.7 ± 18.3^c pg/mL
- MCP-1 concentration ([4]; 24 h, infected cells untreated 934.8 ± 0.0): 934.8 ± 0.0^c pg/mL
- IL-8 concentration ([4]; 24 h, infected cells untreated 2078.0 ± 138.6): 1509.5 ± 16.3^c pg/mL
- TNFα concentration ([4]; 48 h, infected cells untreated 46.83 ± 6.11): 35.18 ± 2.09^a pg/mL
- IL-6 concentration ([4]; 48 h, infected cells untreated 108.06 ± 4.85): 54.75 ± 6.34^∗ pg/mL
- SDF-1 concentration ([4]; 48 h, infected cells untreated 158.2 ± 0.9): 84.2 ± 2.9^a pg/mL
- KC concentration ([4]; 48 h, infected cells untreated 266.1 ± 35.2): 186.4 ± 14.2^c pg/mL
- PDGF-BB concentration ([4]; 48 h, infected cells untreated 440.5 ± 43.1): 354.2 ± 30.0^a pg/mL
- MCP-1 concentration ([4]; 48 h, infected cells untreated 934.2 ± 57.9): 735.5 ± 34.2^a pg/mL
- IL-8 concentration ([4]; 48 h, infected cells untreated 1660.0 ± 196.6): 1074.5 ± 9.2^b pg/mL
- RANTES concentration ([4]; 48 h, infected cells untreated 2317.0 ± 355.0): 618.6 ± 70.8^b pg/mL
